The target in data set [1] is Tyrosine-protein kinase SYK (Homo sapiens, UniProt P43405).
For the next data set, the system named is PBMC. Nature of the data set: Suppression of IL2 production in human PBMC after 24 hrs by ELISA. On the technique in general: An ELISA detects its analyte on a solid surface through an enzyme-linked reagent.
The next data set has as its system Blood. Description: Suppression of IL2 production in human whole blood after 24 hrs by ELISA.
Data set [2] can be described thus: Aqueous solubility of the compound. It is filed as physicochemical. The conditions noted are these: water.
Data set [3] has as its target T1, Tyrosine-protein kinase ZAP-70 (Homo sapiens, UniProt P43403).
T1 sequence (P43403 whole entry): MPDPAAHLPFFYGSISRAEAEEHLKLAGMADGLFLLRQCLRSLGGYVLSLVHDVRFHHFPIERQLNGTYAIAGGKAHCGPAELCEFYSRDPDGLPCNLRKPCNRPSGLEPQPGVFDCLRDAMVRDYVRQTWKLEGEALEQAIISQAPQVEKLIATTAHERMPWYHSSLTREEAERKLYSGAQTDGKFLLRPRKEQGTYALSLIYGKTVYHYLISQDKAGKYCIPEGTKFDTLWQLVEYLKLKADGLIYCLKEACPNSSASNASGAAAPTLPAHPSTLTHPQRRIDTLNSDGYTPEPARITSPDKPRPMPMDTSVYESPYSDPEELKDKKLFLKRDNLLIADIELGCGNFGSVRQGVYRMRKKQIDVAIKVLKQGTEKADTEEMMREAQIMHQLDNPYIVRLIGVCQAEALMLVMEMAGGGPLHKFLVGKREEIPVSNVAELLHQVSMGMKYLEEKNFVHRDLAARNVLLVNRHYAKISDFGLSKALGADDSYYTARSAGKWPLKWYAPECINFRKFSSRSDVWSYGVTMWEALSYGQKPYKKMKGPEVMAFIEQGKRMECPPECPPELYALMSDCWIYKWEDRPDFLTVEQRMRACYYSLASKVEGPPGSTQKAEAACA
Description: Inhibition of human ZAP70.

The target in data set [4] is Tyrosine-protein kinase Lck (Homo sapiens, UniProt P06239).
Tyrosine-protein kinase Lck, sequence (P06239 whole entry): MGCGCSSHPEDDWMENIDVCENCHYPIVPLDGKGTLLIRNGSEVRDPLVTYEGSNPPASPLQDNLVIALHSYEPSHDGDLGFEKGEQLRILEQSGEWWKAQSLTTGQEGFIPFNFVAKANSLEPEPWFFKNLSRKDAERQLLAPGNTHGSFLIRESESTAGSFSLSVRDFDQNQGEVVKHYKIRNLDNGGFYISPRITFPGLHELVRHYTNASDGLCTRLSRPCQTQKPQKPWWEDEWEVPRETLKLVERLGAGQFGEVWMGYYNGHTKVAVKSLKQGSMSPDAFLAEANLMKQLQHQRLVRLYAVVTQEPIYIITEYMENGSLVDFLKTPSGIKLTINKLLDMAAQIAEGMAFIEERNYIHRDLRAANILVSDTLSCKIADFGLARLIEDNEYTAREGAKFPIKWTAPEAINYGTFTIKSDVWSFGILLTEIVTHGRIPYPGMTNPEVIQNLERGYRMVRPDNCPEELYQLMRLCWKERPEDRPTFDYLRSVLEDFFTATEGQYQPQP
The target of data set [5] is Protein kinase C beta type (Homo sapiens, UniProt P05771).
Protein kinase C beta type, sequence (P05771 whole entry): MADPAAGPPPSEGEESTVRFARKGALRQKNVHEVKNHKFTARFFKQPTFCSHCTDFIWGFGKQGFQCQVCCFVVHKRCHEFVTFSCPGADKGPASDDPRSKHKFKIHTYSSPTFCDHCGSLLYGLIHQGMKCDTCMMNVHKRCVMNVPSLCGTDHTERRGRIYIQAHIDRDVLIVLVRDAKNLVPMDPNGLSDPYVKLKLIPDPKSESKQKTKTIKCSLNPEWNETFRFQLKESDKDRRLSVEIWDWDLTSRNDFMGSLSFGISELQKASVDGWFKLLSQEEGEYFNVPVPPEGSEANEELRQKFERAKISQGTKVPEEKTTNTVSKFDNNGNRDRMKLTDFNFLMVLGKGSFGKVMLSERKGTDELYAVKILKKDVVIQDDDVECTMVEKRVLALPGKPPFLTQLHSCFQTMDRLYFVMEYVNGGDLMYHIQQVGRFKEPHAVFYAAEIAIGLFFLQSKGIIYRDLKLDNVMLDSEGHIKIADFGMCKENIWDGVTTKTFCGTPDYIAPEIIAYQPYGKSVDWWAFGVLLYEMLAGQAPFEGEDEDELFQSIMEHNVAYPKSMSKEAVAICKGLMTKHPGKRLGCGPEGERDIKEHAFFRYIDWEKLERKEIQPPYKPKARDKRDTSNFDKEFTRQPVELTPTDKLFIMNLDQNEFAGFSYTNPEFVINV

By pIC50 is commonly meant −log10 of the IC50, conventionally taken in molar units. A higher pIC50 goes with a small IC50. By solubility is commonly meant how much of the substance goes into solution per volume. Low readings indicate little dissolved substance, high ones much dissolved substance.

pIC50: −log10 of the molar value. Values after ≈ are worked out from the molar mass of the structure shown.

In turn, `COc1cc(Nc2nc(N[C@H]3CCCC[C@H]3N)n3c(-c4ccccc4)nnc3c2C(N)=O)cc(OC)c1` (relative stereo) showed a pIC50 in data set [1] of 4.82.
For `COc1cc(Nc2nc(N[C@H]3CCCC[C@H]3N)n3nc(-c4ccccc4)nc3c2C(N)=O)cc(OC)c1` (relative stereo), the figures for the pIC50 (in the data set with PBMC; with Blood; in data set [1]) were 6.68, 5.70 and 7.08, respectively. In data set [2], this compound came in with a solubility of 1.2 µg/mL (≈ 2.39 µM).
Consider `COc1cc(Nc2nc(NCCCN)n3cnnc3c2C(N)=O)cc(OC)c1`, for which the pIC50 in data set [1] is 5.11.
Same read-out and setting: for `COc1cc(Nc2nc(NCC(=O)OC(C)(C)C)n3cnnc3c2C(N)=O)cc(OC)c1` the value was 4.10.
In the case of `COc1cc(Nc2nc(N[C@H]3CCCC[C@H]3N)n3cnnc3c2C(N)=O)cc(OC)c1` (relative stereo), the negative logarithm of the IC50 (pIC50) was 6.92 in data set [3], 8.05 in data set [1], 6.74 in data set [4] and 6.17 in data set [5]. This compound also came in with a solubility in data set [2] of 351 µg/mL (≈ 823 µM).
In turn, `COc1cc(Nc2nc(N[C@H]3CCCC[C@H]3N)n3nc(-c4cccc(OC)c4)nc3c2C(N)=O)cc(OC)c1` (relative stereo) gave a negative logarithm of the IC50 (pIC50) in data set [1] of 6.92.
Regarding `COc1cc(Nc2nc(NCCN)n3cnnc3c2C(N)=O)cc(OC)c1`, in data set [1], the pIC50 is 8.05.
On the same count and under the same terms, then `COc1cc(Nc2nc(NCC(C)(C)N)n3cnnc3c2C(N)=O)cc(OC)c1`, with 6.82.
`COc1cc(Nc2nc(N[C@H]3CCCC[C@H]3N)n3ncnc3c2C(N)=O)cc(OC)c1` (relative stereo): the pIC50 in data set [3] is 6.48; in data set [1] it was 8.40; in data set [4], 6.23; in data set [5], 5.58. This compound came in with a solubility in data set [2] of 42 µg/mL (≈ 98.5 µM).
With `COc1cc(Nc2nc(N[C@H]3CCCC[C@H]3N)n3nc(-c4ccccc4Cl)nc3c2C(N)=O)cc(OC)c1` (relative stereo), the values for the pIC50 (in the data set on PBMC; in data set [1]) were 5.75 and 7.30, respectively.
`COc1cc(Nc2nc(NCCO)n3cnnc3c2C(N)=O)cc(OC)c1`: the negative logarithm of the IC50 (pIC50) in data set [1] is 5.21.

The values above are taken from ChEMBL document CHEMBL1155791, “A novel Syk family kinase inhibitor: design, synthesis, and structure-activity relationship of 1,2,4-triazolo[4,3-c]pyrimidine and 1,2,4-triazolo[1,5-c]pyrimidine derivatives” (Bioorg Med Chem, 2008).
